In article PMC11352108, “Anti-Biofilm and Anti-Inflammatory Properties of the Truncated Analogs of the Scorpion Venom-Derived Peptide IsCT against Pseudomonas aeruginosa” (Antibiotics, 2024):
Where no end group is shown, it is not given here.

Columns and labels:
[1] = system: sheep red blood cells; test: Hemolytic assay; type: cell-based
Experimental: A hemolytic assay was carried out according to the previously described method using commercially sourced sheep red blood cells (Professional Nanomed Company Limited, Bangkok, Thailand). One hundred microliters of a 2% sheep red blood cell suspension prepared in phosphate-buffered saline (PBS) pH 7.4. was incubated for 1 h at 37 °C with 100 μL of the studied peptides (final concentration of 150 µM). After centrifugation at 1000× g for 5 min, 100 μL of supernatant was transferred to new 96-well plates, and the release of hemoglobin was monitored, measuring an optical density (OD) at 405 nm using a BioTek Synergy HT microplate reader. Red blood cells treated with PBS pH 7.4 were used as a negative control, while those treated with 1% Triton X-100 were used as a positive control. The percent hemolysis was calculated as follows:(1) % Hemolysis=OD405 nm of the test peptide−OD405 nm of negative control/OD405 nm of positive control−OD405 nm of negative control × 100

[2] = system: RAW 264.7 macrophages; test: Cytotoxicity assay (MTT); type: cell-based, murine; settings: 48 h; for % Viability, Exp.1: replicate Exp.1; for % Viability, Exp.2: replicate Exp.2
Experimental: The murine macrophage cell line RAW264.7 (TIB-71) was obtained from American Type Culture Collection (ATCC; Manassas, VA, USA). RAW 264.7 cells were cultured in DMEM (HyClone^TM, Logan, UT, USA) supplemented with 10% (v/v) heat-inactivated fetal bovine serum (Gibco, Fisher Scientific, Göteborg, Sweden), 2 mM L-glutamine (PAA Laboratories GmbH, Pasching, Austria), 10 mM 4-(2-hydroxyethyl)-1-piperazineethanesulfonic acid (HyClone^TM, Logan, UT, USA), 100 U/mL penicillin, and 100 µg/mL streptomycin (PAA). RAW 264.7 cells were grown in a 5% CO2 at 37 °C.
The cytotoxic effect of the IsCT-Δ6-8 peptide was assessed using the tetrazolium-based 3-(4,5-dimethylthiazol-2-yl)-2,5-diphenyltetrazolium bromide (MTT) assay. RAW 264.7 cells at 3.5 × 10^5 cells were seeded in a 96-well microtiter plate and incubated at 37 °C for 1 h under 5% CO2. Then, the cells were treated with or without the IsCT-Δ6-8 peptide at concentrations ranging from 37.5 μM to 150 μM for 48 h at 37 °C under 5% CO2. After incubation, 20 µL of MTT (5 mg/mL) was added in each well, and the plate was incubated for another 3 h. The supernatant was then discarded, and 100 µL of DMSO was added to solubilize formazan crystals. The plate was subsequently read at OD540 nm using a BioTek Synergy HT microplate reader. The percent cell viability was calculated using the following equation:(2) % Cell viability=OD of treated cells/OD of untreated cells×100

ILGKIIKSLF [IsCT-Δ6-8]
Hemolytic activity (in words) ([1]; sheep erythrocytes, concentrations as high as 150 μM): decreased hemolytic activity | % Hemolysis, Exp.1 ([1]; sheep red blood cells, 1 h, 37 °C, peptides 150 μM (Triton X-100 1%), replicate Exp.1): 1.56% | % Hemolysis, Exp.2 ([1]; sheep red blood cells, 1 h, 37 °C, peptides 150 μM (Triton X-100 1%), replicate Exp.2): 0.72% | % Hemolysis, Exp.3 ([1]; sheep red blood cells, 1 h, 37 °C, peptides 150 μM (Triton X-100 1%), replicate Exp.3): 3.45% | % Viability, Exp.1 ([2]; 37.5 µM, 37 °C, 5% CO2, MTT, OD 540 nm): 109.403% | % Viability, Exp.2 ([2]; 37.5 µM, MTT): 94.438% | % Viability, Exp.1 ([2]; 75 µM, MTT): 102.742% | % Viability, Exp.2 ([2]; 75 µM, MTT): 96.302% | % Viability, Exp.1 ([2]; 150 µM, MTT): 94.479% | % Viability, Exp.2 ([2]; 150 µM, MTT): 100.171% | Viability of RAW 264.7 macrophages (in words) ([2]; 37.5–150 μM, MTT, compared with untreated control): not significantly changed
